The results in this text go back to ChEMBL document CHEMBL4842391, “Discovery and Nanosized Preparations of (S,R)-Tylophorine Malate as Novel anti-SARS-CoV-2 Agents” (ACS Med Chem Lett, 2021).

Data set [1] concerns SARS-CoV-2. The data set is described as follows: Antiviral activity against SARS-CoV-2 C-Tan-nCoV Wuhan strain 01 virus infected in Hamster rat assessed as widening of bronchus at 5 mg/kg, inh administered for 3 days starting from 1 hr post infection and measured on day 4 by histopathological analysis. The conditions noted are these: Severe acute respiratory syndrome coronavirus 2, time 4.0 day. It is filed as functional, organism-based.

Data set [2] relates to SARS-CoV-2. The data set is described as follows: Antiviral activity against SARS-CoV-2 C-Tan-nCoV Wuhan strain 01 virus infected in Hamster rat assessed as infiltration of neutrophils at 5 mg/kg, inh administered for 3 days starting from 1 hr post infection and measured on day 4 by histopathological analysis. It is filed as functional, organism-based. The conditions noted are these: Severe acute respiratory syndrome coronavirus 2, time 4.0 day.

Data set [3] has as its system SARS-CoV-2. The data set is described as follows: Antiviral activity against SARS-CoV-2 C-Tan-nCoV Wuhan strain 01 virus infected in Hamster rat assessed as infiltration of lymphocytes at 5 mg/kg, inh administered for 3 days starting from 1 hr post infection and measured on day 4 by histopathological analysis. The conditions noted are these: Severe acute respiratory syndrome coronavirus 2, time 4.0 day. It is filed as functional, organism-based.

Data set [4] deals with SARS-CoV-2. The data set is described as follows: Antiviral activity against SARS-CoV-2 C-Tan-nCoV Wuhan strain 01 virus infected in Hamster rat assessed as widening of bronchus at 25 mg/kg, inh administered for 3 days starting from 1 hr post infection and measured on day 4 by histopathological analysis. The class given is functional, organism-based. Conditions: Severe acute respiratory syndrome coronavirus 2, time 4.0 day.

For data set [5], the system named is SARS-CoV-2. The data set is described as follows: Antiviral activity against SARS-CoV-2 C-Tan-nCoV Wuhan strain 01 infected in African green monkey Vero cells assessed as inhibition of viral replication measured after 48 hrs by RT-qPCR method. The conditions noted are these: Severe acute respiratory syndrome coronavirus 2, C-Tan-nCoV Wuhan strain 01, Vero. It is filed as functional, organism-based. In general terms: Real-time PCR tracks product formation cycle by cycle.

Data set [6] concerns SARS-CoV-2. The data set is described as follows: Antiviral activity against SARS-CoV-2 C-Tan-nCoV Wuhan strain 01 virus infected in Hamster rat assessed as widening of alveolar septum at 5 mg/kg, inh administered for 3 days starting from 1 hr post infection and measured on day 4 by histopathological analysis. The conditions noted are these: Severe acute respiratory syndrome coronavirus 2, time 4.0 day. The class given is functional, organism-based.

Data set [7] relates to SARS-CoV-2. The data set is described as follows: Antiviral activity against SARS-CoV-2 C-Tan-nCoV Wuhan strain 01 virus infected in Hamster rat assessed as widening of perivascular interstitium at 5 mg/kg, inh administered for 3 days starting from 1 hr post infection and measured on day 4 by histopathological analysis. The class given is functional, organism-based. The conditions noted are these: Severe acute respiratory syndrome coronavirus 2, time 4.0 day.

In data set [8] the test system is SARS-CoV-2. The data set is described as follows: Antiviral activity against SARS-CoV-2 C-Tan-nCoV Wuhan strain 01 virus infected in Hamster rat assessed as infiltration of neutrophils at 25 mg/kg, inh administered for 3 days starting from 1 hr post infection and measured on day 4 by histopathological analysis. It is filed as functional, organism-based. The conditions noted are these: Severe acute respiratory syndrome coronavirus 2, time 4.0 day.

For data set [9], the system named is SARS-CoV-2. The data set is described as follows: Antiviral activity against SARS-CoV-2 C-Tan-nCoV Wuhan strain 01 virus infected in Hamster rat assessed as widening of perivascular interstitium at 25 mg/kg, inh administered for 3 days starting from 1 hr post infection and measured on day 4 by histopathological analysis. It is filed as functional, organism-based. Conditions: Severe acute respiratory syndrome coronavirus 2, time 4.0 day.

For data set [10], the system named is SARS-CoV-2. The data set is described as follows: Antiviral activity against SARS-CoV-2 C-Tan-nCoV Wuhan strain 01 virus infected in Hamster rat assessed as widening of alveolar septum at 25 mg/kg, inh administered for 3 days starting from 1 hr post infection and measured on day 4 by histopathological analysis. It is filed as functional, organism-based. The conditions noted are these: Severe acute respiratory syndrome coronavirus 2, time 4.0 day.

Data set [11] has as its system SARS-CoV-2. The data set is described as follows: Antiviral activity against SARS-CoV-2 C-Tan-nCoV Wuhan strain 01 virus infected in Hamster rat assessed as infiltration of lymphocytes at 25 mg/kg, inh administered for 3 days starting from 1 hr post infection and measured on day 4 by histopathological analysis. The class given is functional, organism-based. The conditions noted are these: Severe acute respiratory syndrome coronavirus 2, time 4.0 day.

Data set [12] in a line: Toxicity in Hamster rat infected with SARS-CoV-2 C-Tan-nCoV Wuhan strain 01 assessed as body weight loss at 25 mg/kg, inh measured after 4 days. The class given is organism-based. Conditions: in vivo, inhaled_or_intranasal, 96 h, time 4 day.
The nature of data set [13]: Safety index, ratio of CC50 for African green monkey Vero cells to EC50 for antiviral activity against SARS-CoV-2 C-Tan-nCoV Wuhan strain 01 infected in African green monkey Vero cells. It is filed as toxicity. The conditions noted are these: read-out: Ratio CC50/EC50.
Data set [14] in a line: Cytotoxicity against African green monkey Vero cells. The conditions noted are these: chlorocebus sabaeus. It is filed as cell-based.
Data set [15] is described as follows: Toxicity in Hamster rat infected with SARS-CoV-2 C-Tan-nCoV Wuhan strain 01 assessed as body weight loss at 5 mg/kg, inh measured after 4 days. It is filed as organism-based. The conditions noted are these: in vivo, inhaled_or_intranasal, 96 h, time 4 day.

Structures are written as SMILES. Calls of active or inactive are those of the source. The rule behind the calls is not given here.

Regarding `CCC(CC)COC(=O)[C@H](C)N[P@](=O)(OC[C@H]1O[C@@](C#N)(c2ccc3c(N)ncnn23)[C@H](O)[C@@H]1O)Oc1ccccc1` [REMDESIVIR], the result with SARS-CoV-2 [1], with SARS-CoV-2 [2], with SARS-CoV-2 [3], in the data set on SARS-CoV-2 [4], with SARS-CoV-2 [6] and with SARS-CoV-2 [7] was Active. Besides, the outcome with SARS-CoV-2 [8], in the data set with SARS-CoV-2 [9], in the data set with SARS-CoV-2 [10] and in the data set with SARS-CoV-2 [11] was Active. In addition, the EC50 in the data set with SARS-CoV-2 [5] stood at 800 nM. Moreover, the Activity result in data set [12] was “Non-Toxic”.

On to `COc1cc2c3c(c4cc(OC)c(OC)cc4c2cc1OC)CN1CCC[C@H]1C3.O=C(O)C[C@@H](O)C(=O)O`, for which, in [13], the selectivity ratio came out at 268. The EC50 in the data set with SARS-CoV-2 [5] turned out to be 30 nM. The compound further returned a CC50 in data set [14] of 26.2 µM. Further, the Activity entry in data set [15] is recorded as “Non-Toxic”.

A word on the EC50: it is the concentration giving half of the maximal effect. As usually defined, the CC50 is the concentration that lowers cell viability or growth by half.
